From patent US11104690B2, “Indazole derivatives useful as inhibitors of diacylglyceride O-acyltransferase 2” (Merck Sharp & Dohme Corp., priority 2016, dated 2021)

What follows are compounds tested against Human DGAT2 (Homo sapiens (Human), UniProt Q96PD7) (assay: DGAT2 Enzymatic Activity Assay (triolein formation, LC/MS/MS)). Details: hDGAT2 Sf-9 membrane prep; 25 μM diolein, 10 μM oleoyl-CoA; room temperature.
Assay type: biochemical
How it was run: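 Membranes from Sf-9 cells infected with untagged hDGAT2 baculovirus, 10 ng/μL, at room temperature in 100 mM Tris.Cl pH 7.0, 20 mM MgCl2, 5% ethanol with 25 μM diolein and 10 μM oleoyl-CoA. Triolein quantified by LC/MS/MS against spiked internal standard; IC50 from 4-parameter sigmoidal fit.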

Chain of Human DGAT2 (Q96PD7 whole entry): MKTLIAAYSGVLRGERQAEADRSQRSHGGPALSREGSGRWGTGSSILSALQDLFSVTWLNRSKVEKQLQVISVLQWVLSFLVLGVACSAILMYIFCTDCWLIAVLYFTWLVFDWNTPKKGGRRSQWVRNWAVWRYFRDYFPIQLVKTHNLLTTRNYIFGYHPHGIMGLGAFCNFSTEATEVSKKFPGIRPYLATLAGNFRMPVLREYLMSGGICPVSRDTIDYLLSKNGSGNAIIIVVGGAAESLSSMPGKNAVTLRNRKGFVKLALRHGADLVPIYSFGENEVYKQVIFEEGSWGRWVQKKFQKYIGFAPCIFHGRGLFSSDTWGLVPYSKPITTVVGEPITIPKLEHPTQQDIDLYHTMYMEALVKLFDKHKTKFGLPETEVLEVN

IC50 [µM] | Structure (SMILES)
0.048 | O=C(N[C@@H](CO)c1ccc(C(F)(F)F)nc1)c1ccc2c(-c3ccccc3Cl)nn(-c3ccc(F)cc3)c2c1 [Example 30, 3-(2-chlorophenyl)-1-(4-fluorophenyl)-N-{(1R)-2-hydroxy-1-[6-(trifluoromethyl)pyridin-3-yl]ethyl}-1H-indazole-6-carboxamide]
0.32 | O=C(NCc1cccnc1)c1ccc2c(-c3ccccc3Cl)nn(-c3ccc(F)cc3)c2c1 [Example 31, 3-(2-chlorophenyl)-1-(4-fluorophenyl)-N-(pyridin-3-ylmethyl)-1H-indazole-6-carboxamide]
0.495 | O=C(NCc1ccccn1)c1ccc2c(-c3ccccc3Cl)nn(-c3ccc(F)cc3)c2c1 [Example 32, 3-(2-chlorophenyl)-1-(4-fluorophenyl)-N-(pyridin-2-ylmethyl)-1H-indazole-6-carboxamide]
0.654 | O=C(NCc1ccncc1)c1ccc2c(-c3ccccc3Cl)nn(-c3ccc(F)cc3)c2c1 [Example 33, 3-(2-chlorophenyl)-1-(4-fluorophenyl)-N-(pyridin-4-ylmethyl)-1H-indazole-6-carboxamide]
0.075 | Cc1ncc([C@H](C)NC(=O)c2ccc3c(-c4ccccc4Cl)nn(-c4ccc(F)cc4)c3c2)cn1 [Example 34, 3-(2-chlorophenyl)-1-(4-fluorophenyl)-N-[(1S)-1-(2-methylpyrimidin-5-yl)ethyl]-1H-indazole-6-carboxamide]
0.415 | O=C(NCc1cn2cccnc2n1)c1ccc2c(-c3ccccc3Cl)nn(-c3ccc(F)cc3)c2c1 [Example 35, 3-(2-chlorophenyl)-1-(4-fluorophenyl)-N-(imidazo[1,2-a]pyrimidin-2-ylmethyl)-1H-indazole-6-carboxamide]
0.221 | O=C(NCc1cnoc1)c1ccc2c(-c3ccccc3Cl)nn(-c3ccc(F)cc3)c2c1 [Example 37, 3-(2-chlorophenyl)-1-(4-fluorophenyl)-N-(isoxazol-4-ylmethyl)-1H-indazole-6-carboxamide]
0.368 | O=C(NCc1cncnc1)c1ccc2c(-c3ccccc3Cl)nn(-c3ccc(F)cc3)c2c1 [Example 38, 3-(2-chlorophenyl)-1-(4-fluorophenyl)-N-(pyrimidin-5-ylmethyl)-1H-indazole-6-carboxamide]
0.096 | O=C(NCCn1cnnc1)c1ccc2c(-c3ccccc3Cl)nn(-c3ccc(F)cc3)c2c1 [Example 39, 3-(2-chlorophenyl)-1-(4-fluorophenyl)-N-[2-(4H-1,2,4-triazol-4-yl)ethyl]-1H-indazole-6-carboxamide]

Further lines, the compound ahead of its results:

Structure (SMILES) | IC50 [µM]
N[C@H]1CS(=O)(=O)C[C@@H]1NC(=O)c1ccc2c(-c3ccccc3Cl)nn(-c3ccc(F)cc3)c2c1 [Example 8, N-[(3R,4R)-4-amino-1,1-dioxidotetrahydrothiophen-3-yl]-3-(2-chlorophenyl)-1-(4-fluorophenyl)-1H-indazole-6-carboxamide] | 0.554
O=C(N[C@@H]1CS(=O)(=O)C[C@H]1O)c1ccc2c(-c3ccccc3Cl)nn(-c3ccc(F)cc3)c2c1 [Example 9, 3-(2-chlorophenyl)-1-(4-fluorophenyl)-N-[(3S,4S)-4-hydroxy-1,1-dioxidotetrahydrothiophen-3-yl]-1H-indazole-6-carboxamide] | 0.531
O=C(Nc1ccc(C(F)(F)F)nc1)c1ccc2c(-c3ccccc3Cl)nn(-c3ccc(F)cc3)c2c1 [Example 10, 3-(2-chlorophenyl)-1-(4-fluorophenyl)-N-[6-(trifluoromethyl)pyridin-3-yl]-1H-indazole-6-carboxamide] | 0.608
C[C@@H](NC(=O)c1ccc2c(-c3ccccc3Cl)nn(-c3ccc(F)cc3)c2c1)c1ccc(C(F)(F)F)nc1 [Example 11, 3-(2-chlorophenyl)-1-(4-fluorophenyl)-N-{(1R)-1-[6-(trifluoromethyl)pyridin-3-yl]ethyl}-1H-indazole-6-carboxamide] | 0.038
COC[C@H](C)NC(=O)c1ccc2c(-c3ccccc3Cl)nn(-c3ccc(F)cc3)c2c1 [Example 12, 3-(2-chlorophenyl)-1-(4-fluorophenyl)-N-[(1S)-2-methoxy-1-methylethyl]-1H-indazole-6-carboxamide] | 0.085
C[C@H](NC(=O)c1ccc2c(-c3ccccc3Cl)nn(-c3ccc(F)cc3)c2c1)c1ccc(C(F)(F)F)nc1 [Example 13, 3-(2-chlorophenyl)-1-(4-fluorophenyl)-N-{(1S)-1-[6-(trifluoromethyl)pyridin-3-yl]ethyl}-1H-indazole-6-carboxamide] | 0.048
CC(C)(C)NC(=O)c1ccc2c(-c3ccccc3Cl)nn(-c3ccc(F)cc3)c2c1 [Example 15, N-tert-butyl-3-(2-chlorophenyl)-1-(4-fluorophenyl)-1H-indazole-6-carboxamide] | 0.077
Cn1cc(C(C)(C)NC(=O)c2ccc3c(-c4ccccc4Cl)nn(-c4ccc(F)cc4)c3c2)cn1 [Example 16, 3-(2-chlorophenyl)-1-(4-fluorophenyl)-N-[1-methyl-1-(1-methyl-1H-pyrazol-4-yl)ethyl]-1H-indazole-6-carboxamide] | 0.12
O=C(NCc1ccc(C(F)(F)F)nc1)c1ccc2c(-c3ccccc3Cl)nn(-c3ccc(F)cc3)c2c1 [Example 18, 3-(2-chlorophenyl)-1-(4-fluorophenyl)-N-{[6-(trifluoromethyl)pyridin-3-yl]methyl}-1H-indazole-6-carboxamide] | 0.064
CC(C)(C)OC(=O)CCNC(=O)c1ccc2c(-c3ccccc3Cl)nn(-c3ccc(F)cc3)c2c1 [Example 19, tert-butyl N-{[3-(2-chlorophenyl)-1-(4-fluorophenyl)-1H-indazol-6-yl]carbonyl}-beta-alaninate] | 0.585
NS(=O)(=O)CCNC(=O)c1ccc2c(-c3ccccc3Cl)nn(-c3ccc(F)cc3)c2c1 [Example 20, 3-(2-chlorophenyl)-1-(4-fluorophenyl)-N-(2-sulfamoylethyl)-1H-indazole-6-carboxamide] | 0.148
O=C(NC1COC1)c1ccc2c(-c3ccccc3Cl)nn(-c3ccc(F)cc3)c2c1 [Example 21, 3-(2-chlorophenyl)-1-(4-fluorophenyl)-N-oxetan-3-yl-1H-indazole-6-carboxamide] | 0.873
O=C(NC1CCS(=O)(=O)CC1)c1ccc2c(-c3ccccc3Cl)nn(-c3ccc(F)cc3)c2c1 [Example 24, 3-(2-chlorophenyl)-N-(1,1-dioxidotetrahydro-2H-thiopyran-4-yl)-1-(4-fluorophenyl)-1H-indazole-6-carboxamide] | 0.061
CN(C)S(=O)(=O)CCNC(=O)c1ccc2c(-c3ccccc3Cl)nn(-c3ccc(F)cc3)c2c1 [Example 25, 3-(2-chlorophenyl)-N-[2-(dimethylsulfamoyl)ethyl]-1-(4-fluorophenyl)-1H-indazole-6-carboxamide] | 0.558
CCS(=O)(=O)CCNC(=O)c1ccc2c(-c3ccccc3Cl)nn(-c3ccc(F)cc3)c2c1 [Example 26, 3-(2-chlorophenyl)-N-[2-(ethylsulfonyl)ethyl]-1-(4-ftuorophenyl)-1H-indazole-6-carboxamide] | 0.446
CC(C)(NC(=O)c1ccc2c(-c3ccccc3Cl)nn(-c3ccc(F)cc3)c2c1)c1ccc(C(F)(F)F)nc1 [Example 28, 3-(2-chlorophenyl)-1-(4-fluorophenyl)-N-{1-methyl-1-[6-(trifluoromethyl)pyridin-3-yl]ethyl}-1H-indazole-6-carboxamide] | 0.093
